{
  "source": "patent US20150064221A1",
  "about": "“COMPOUNDS HAVING IMMUNOMUDULATOR ACTIVITY” (priority 2012, published 2015)",
  "key": {"[1]": {"test_system": "Thioglycollate-elicited macrophages", "experiment": "TNF-α production of macrophages treated with TLR agonists", "assay_type": "cell-based", "settings": "10 μg/ml, 48 hours", "experimental": "(A) Thioglycollate-elicited macrophages (1×10^6/ml) were stimulated with either LPS (5 μg/ml), zymosan (ZYM, 50 μg/ml), MDP (25 μg/ml), or Poly(I:C) (50 μg/ml) in the presence or absence of VGX-1027 (10 μg/ml). TNF-α was measured 48 hours post treatment. (B) Relative phosphorylations of 1-κBα and p38 were measured at the indicated time points following stimulation with LPS (5 μg/ml). The y-axis is presented as fold change in comparison to the values obtained from LPS-treated cultures alone. * p<0.05.\nThioglycollate-elicited macrophages were treated with multiple TLR agonists for 48 hours. TNF-α production was measured. The following agonists were used to activate the various TLRs."}, "[2]": {"test_system": "type II collagen-induced arthritis", "experiment": "Type II collagen-induced arthritis (CIA)", "assay_type": "in vivo, mice", "experimental": "VGX-1027 was administered intraperitoneally and were measured for an arthritic score (A), cumulative arthritic score (B), hind paws edema (C), and histological score (D) were measured. Data are shown as mean values±SD form 2 independent experiments. Statistical analysis was performed by Student's t test. *p<0.0001 was taken as significant.\nTo induce CIA, the mice were injected intradermally at the base of the tail with […] of an emulsion containing […] of CII, and were boosted on day 21. In terms of treatment, VGX-1027 was used only as a “therapeutic” regime by administering the drug via intraperitoneal administration to mice with a clinical score equal or higher than 1. The mice were treated with vehicle, dexamethasone (0.3 mg/kg), or VGX-1027 (0.5 mg/mouse) for 10 consecutive days. The mice were assessed with the following scoring system: 0=no signs of arthritis; 1=swelling and/or redness of the paw or 1 digit; 2=involvement of 2 joints; 3=involvement of N2 joints, and 4=severe arthritis of the entire paw and digits. An arthritis index was calculated for each mouse by summing the scores for the individual paws. Other clinical severity measures were hind paw volume and histological assessment of damage; the latter was measured with the following criteria: 0=no damage; 1=edema; 2=presence of inflammatory cells; and 3-bone resorption."}},
  "note": "Entries after “also recorded” stand apart in the source; their conditions may differ.",
  "data": [
    {"smiles": "O=C(O)CC1CC(c2ccccc2)=NO1", "note": "(centres unmarked) [VGX-1027, 3-phenyl-4,5-dihydro-5-isoxazoleacetic acid]", "values": [
      {"measurement": "TNF-α production", "setting": "[1]; LPS (5 μg/ml)", "value": "inhibited"},
      {"measurement": "TNF-α production", "setting": "[1]; MDP (25 μg/ml)", "value": "inhibited"},
      {"measurement": "TNF-α production", "setting": "[1]; ZYM (50 μg/ml)", "value": "inhibited"},
      {"measurement": "TNF-α production", "setting": "[1]; poly(I:C) (50 μg/ml)", "value": "did not affect"},
      {"measurement": "hind paw volume", "setting": "[2]; after 3 days of therapy", "value": "significant decreases"},
      {"measurement": "mean arthritic score", "setting": "[2]; after 3 days of therapy", "value": "significant decreases"},
      {"measurement": "inflammation via histological measurement", "setting": "[2]; mouse, in vivo", "value": "improvements"},
      {"measurement": "clinical features of CIA", "setting": "[2]; therapeutic, i.p. 0.5 mg/mouse, 10 days", "value": "attenuated; also recorded: comparable to the amount observed with dexamethasone"}
    ]}
  ]
}
